One may read the IC50 as the concentration at which inhibition is half-maximal.

These results are taken from US10774051B2, “6-membered heterocyclic derivatives and pharmaceutical composition comprising the same” (Shionogi & Co., Ltd., priority 2015, dated 2020).

One assay deals with human P2X7 receptor (Homo sapiens, UniProt Q99572, R270H/Y155H). Briefly: Evaluation of human P2X7 receptor inhibitory activity (Yo-Pro uptake, BzATP stimulation, FLIPR TETRA). The class given is cell-based. Particulars: 1321N1 cells stably expressing human P2X7 receptor; BzATP stimulation, Yo-Pro uptake; read-out: IC50 (antagonistic activity for the human P2X7 receptor). In short, it runs like this:
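1321N1 cells stably expressing human P2X7 (T606C/G952A SNP variant), in HBSS buffer pH 7.4-7.5 with Yo-Pro, stimulated with BzATP; compound added 8 min after agonist. Fluorescence followed for 20 min on FLIPR; max-minus-min change gave % inhibition, IC50 by logistic fit.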
Take `Cc1cc(Nc2nc(=O)c(Cl)cn2Cc2cc(F)cc(F)c2)c2cc[nH]c2c1` [Compound I-0706]: the IC50 was found to be 15 nM.
On the same count and under the same terms, the figure for `COc1cn(Cc2cc(F)c(F)cc2F)c(Nc2cccc(Cl)c2C)nc1=O` [Compound I-0347] is 20 nM.
The same measure, in the same setting: then `COc1cc(C)c(Nc2nc(=O)c(F)cn2Cc2cc(F)cc(F)c2)cc1C(C)C` [Compound I-1071], with 15 nM.
Turning to `COC(=O)Nc1cn(Cc2ccccc2)c(Nc2cccc(Cl)c2C)nc1=O` [Compound I-0020], the IC50 was determined as 17 nM.
The same measure, in the same setting: the figure for `COc1cn(Cc2cc(F)c(F)c(F)c2)c(Nc2cccc3sccc23)nc1=O` [Compound I-0626] is 4 nM.
Consider `Cc1c(Cl)cccc1Nc1nc(=O)ccn1CCc1ccccc1` [Compound I-0055], for which the 50% inhibitory concentration (IC50) came out at 26 nM.
For the compound `Cc1nc2cc(C)c(Nc3cc(=O)n(C)c(=O)n3Cc3cc(F)c(F)c(F)c3)cc2s1` [Compound I-0030], the IC50 is 34 nM.
On the same count and under the same terms, the figure for `COc1ccc(C)c(Oc2cc(=O)c(OC)cn2Cc2ccc(F)c(Cl)c2)c1` [Compound I-0961] is 410 nM.

Still in this assay, the particulars now being: 1321N1 cells stably expressing human P2X7 receptor; BzATP stimulation, Yo-Pro uptake; read-out: IC50 (antagonistic activity for the human P2X7 receptor), class symbol.
`COc1cc(F)cc(Cn2cc(OC)c(=O)nc2Nc2cccc(Cl)c2C)c1` [Compound I-0427]: the IC50 fell in the range of 100 to 500 nM.
The same measure, in the same setting: the figure for `COc1cn(Cc2ccc(F)c(Cl)c2)c(Nc2cc(C)cc(C)c2C)nc1=O` [Compound I-0502] is 10 to 100 nM; for `Cc1cccc(Nc2nc(=O)c(Br)cn2Cc2ccccc2)c1C` [Compound I-0108] it is 10 to 100 nM; for `COc1cn(Cc2ccccc2)c(Nc2ccccc2Cl)nc1=O` [Compound I-0060] it is 500 to 1000 nM.
The same measure, in the same setting: then `CCOc1ccc(C)c(Nc2nc(=O)c(OC)cn2Cc2ccccc2)c1` [Compound I-0455], with 10 to 100 nM.
Still for that read-out and setting: then `COc1cn(Cc2ccc(Cl)c(F)c2)c(Nc2cc3c(cc2C)OCCO3)nc1=O` [Compound I-0293], with 10 to 100 nM; and `COc1cn(Cc2cccc(F)c2)c(Nc2cc3sc(C)nc3cc2C)nc1=O` [Compound I-0559], with 10 to 100 nM; and `CCc1ccccc1Nc1nc(=O)c(F)cn1Cc1ccc(F)cc1` [Compound I-0140], with 10 to 100 nM.
As to `CCc1cc(OC)c(OC)cc1Nc1nc(=O)c(OC)cn1Cc1ccc(F)cc1` [Compound I-0270], the IC50 is less than 10 nM.
The same measure, in the same setting: then `COc1cn(Cc2ccccc2)c(Nc2ccc3[nH]ccc3c2C)nc1=O` [Compound I-0583], with less than 10 nM; and `COc1cn(Cc2ccccc2)c(Nc2cccc(Cl)c2Cl)nc1=O` [Compound I-0096], with 10 to 100 nM; and `COc1cc(C)cc(Nc2nc(=O)c(OC)cn2Cc2ccc(F)c(Cl)c2)c1C` [Compound I-0465], with less than 10 nM.
In the case of `COc1cn(Cc2ccccc2)c(Nc2cc(OCC(F)(F)F)ccc2C)nc1=O` [Compound I-0493], the IC50 is 10 to 100 nM.
For `COc1ccc(C)c(Nc2nc(=O)c(OC)cn2Cc2cc(F)cc(F)c2)c1` [Compound I-0408], the IC50 lay within 10 to 100 nM.
Still for that read-out and setting: the figure for `COc1cn(Cc2ccc(F)cc2)c(Nc2cc(C)ccc2C)nc1=O` [Compound I-0332] is 10 to 100 nM; for `COc1cn(Cc2ccc(C)cc2)c(Nc2cccc(Cl)c2C)nc1=O` [Compound I-0045] it is 500 to 1000 nM.
For `COc1cn(Cc2ccc(F)c(Cl)c2)c(Nc2cc(N3CCCS3(=O)=O)ccc2C)nc1=O` [Compound I-0232], the IC50 was less than 10 nM.
In the case of `COc1cn(Cc2cc(F)cc(F)c2)c(Nc2cccc(OC(F)F)c2C)nc1=O` [Compound I-0504], the concentration for half-maximal inhibition (IC50) was less than 10 nM.
Same read-out and setting: the figure for `COc1cn(Cc2cccc(Cl)c2)c(Nc2ccc(C)cc2C)nc1=O` [Compound I-0374] is 10 to 100 nM.
As to `COc1cn(CCCc2ccccc2)c(Nc2cccc(Cl)c2C)nc1=O` [Compound I-0099], the concentration for half-maximal inhibition (IC50) lay in the range of 100 to 500 nM.
The same measure, in the same setting: the figure for `COc1ccc(Nc2nc(=O)c(OC)cn2Cc2ccccc2)c(C)c1C` [Compound I-0499] is 10 to 100 nM.
On the same count and under the same terms, the figure for `COc1cn(Cc2ccc(F)c(Cl)c2)c(Nc2cc(C)ccc2C)nc1=O` [Compound I-0334] is less than 10 nM.
In the case of `Cc1c(Cl)cccc1Nc1nc(=O)c(CC(=O)NCc2ccccc2)cn1Cc1ccccc1` [Compound I-0341], the concentration for half-maximal inhibition (IC50) was 100 to 500 nM.
On to `CCc1ccccc1Nc1nc(=O)c(OC)cn1Cc1cccc(Cl)c1` [Compound I-0322], for which the IC50 lay within 10 to 100 nM.
The same measure, in the same setting: the figure for `COc1cc(C)c(Nc2nc(=O)c(OC)cn2Cc2ccc(F)c(F)c2)cc1OC` [Compound I-0276] is 10 to 100 nM; for `COc1cc(Nc2nc(=O)c(OC)cn2Cc2ccc(F)c(F)c2)c(C)cc1Cl` [Compound I-0535] it is less than 10 nM.
On the same count and under the same terms, then `COc1cn(Cc2ccc(Cl)c(Cl)c2)c(Nc2cccc(Cl)c2C)nc1=O` [Compound I-0296], with 10 to 100 nM; and `CCc1ccccc1Nc1nc(=O)c(OC)cn1Cc1cc(F)c(F)c(F)c1` [Compound I-0568], with 10 to 100 nM.
As to `COc1cc(C)c(Nc2nc(=O)c(OC)cn2Cc2ccc(F)cc2)cc1C` [Compound I-0282], the IC50 is less than 10 nM.
The same measure, in the same setting: then `COc1cn(Cc2ccccc2)c(Nc2cc(C)c(Cl)cc2C)nc1=O` [Compound I-0233], with less than 10 nM; and `Cc1cccc(Nc2nc(=O)c(C(=O)O)cn2Cc2ccccc2)c1Cl` [Compound I-0112], with 10 to 100 nM.

Still in this assay, the particulars now being: antagonistic activity for the human P2X7 receptor; read-out: IC50.
As for `Cc1cc(C(F)F)ccc1Nc1nc(=O)c(F)cn1Cc1cc(F)c(F)c(F)c1` [Compound I-1237], the IC50 was less than 10 nM.
As to `COc1ccc(C)c(Nc2nc(=O)c(CO)nn2Cc2cc(F)c(F)c(F)c2)c1` [Compound I-1246], the half-inhibitory concentration (IC50) is less than 10 nM.
The same measure, in the same setting: the figure for `COc1cn(Cc2cc(F)c(F)c(F)c2)c(Nc2cc(OC(F)(F)F)ccc2C)nc1=O` [Compound I-0869] is 10 to 100 nM.
On the same count and under the same terms, then `COc1cn(Cc2ccc(F)c(F)c2)c(Nc2cccc(SC)c2C)nc1=O` [Compound I-0606], with less than 10 nM.
The same measure, in the same setting: the figure for `COc1cn(Cc2ccccc2)c(Nc2cc3c(cc2C)OCO3)nc1=O` [Compound I-0720] is 10 to 100 nM; for `CCOc1ccc(Nc2nc(=O)c(OC)cn2Cc2cc(F)cc(F)c2)c(C)c1` [Compound I-0680] it is 10 to 100 nM; for `COc1cn(Cc2cc(F)cc(F)c2)c(Nc2cc(CO)c(C)cc2C)nc1=O` [Compound I-0600] it is less than 10 nM.
Consider `Cc1c(Cl)cccc1Nc1nc(=O)c(F)cn1Cc1cc(F)c(F)c(F)c1` [Compound I-1219], for which the IC50 was less than 10 nM.
Same read-out and setting: the figure for `CCOc1cc(Nc2nc(=O)c(OC)cn2Cc2cc(F)cc(F)c2)c(C)cc1C` [Compound I-0794] is less than 10 nM.
The same measure, in the same setting: then `O=c1nc(Nc2cccc3c2CCN3)n(Cc2cc(F)c(F)c(F)c2)cc1F` [Compound I-0995], with 10 to 100 nM.
For the compound `O=c1nc(Nc2cccc3c2CCN3)n(Cc2cc(F)cc(F)c2)cc1F` [Compound I-1074], the IC50 is 10 to 100 nM.
On the same count and under the same terms, the figure for `CCOc1cc(Nc2nc(=O)c(F)cn2Cc2cc(F)cc(F)c2)c(C)cc1F` [Compound I-1032] is 10 to 100 nM.
The same measure, in the same setting: the figure for `CCc1ccc(Br)cc1Nc1nc(=O)c(OC)cn1Cc1ccccc1` [Compound I-0621] is less than 10 nM.
Still for that read-out and setting: then `Cc1ccc(CO)cc1Nc1nc(=O)c(F)cn1Cc1ccc(F)c(Cl)c1` [Compound I-1013], with less than 10 nM; and `COc1cn(Cc2cc(F)c(F)c(F)c2)c(Nc2cc(C)c(F)cc2C)nc1=O` [Compound I-0712], with less than 10 nM.
Turning to `Cc1ccc(-c2cscn2)cc1Nc1nc(=O)c(F)cn1Cc1cc(F)cc(F)c1` [Compound I-0867], the half-inhibitory concentration (IC50) was less than 10 nM.
On the same count and under the same terms, then `COc1cn(Cc2ccccc2)c(Nc2cc(Oc3ccccn3)ccc2C)nc1=O` [Compound I-0895], with 10 to 100 nM; and `COc1ccc(Nc2nc(=O)c(C(=O)O)nn2Cc2cc(F)c(F)c(F)c2)c(C)c1` [Compound I-1250], with 100 to 500 nM.
Turning to `COc1cn(Cc2ccccc2)c(Nc2cc(-c3cccnc3)ccc2C)nc1=O` [Compound I-0690], the 50% inhibitory concentration (IC50) was in the range of 10 to 100 nM.
Same read-out and setting: the figure for `COc1cn(Cc2cc(F)cc(F)c2)c(Nc2cc3c(cc2C)OC(F)(F)O3)nc1=O` [Compound I-0726] is 100 to 500 nM.
On the same count and under the same terms, then `COc1cn(Cc2cc(F)c(F)c(F)c2)c(Nc2cc(N3CCCC3=O)ccc2C)nc1=O` [Compound I-0803], with 10 to 100 nM.
For `COc1ccc(Nc2nc(=O)c(F)cn2Cc2ccc(F)c(F)c2)c(C)c1` [Compound I-0841], the IC50 was less than 10 nM.
The same measure, in the same setting: then `COc1ncccc1-c1ccc(C)c(Nc2nc(=O)c(OC)cn2Cc2cc(F)c(F)c(F)c2)c1` [Compound I-0832], with less than 10 nM; and `CCc1cc2c(cc1Nc1nc(=O)c(OC)cn1Cc1cc(F)cc(F)c1)OC(F)(F)O2` [Compound I-0729], with 100 to 500 nM; and `COc1cnc(Nc2cccc(Cl)c2C)n(Cc2cccc(Cl)c2)c1=O` [Compound I-0969], with 500 to 1000 nM.
Same read-out and setting: the figure for `COc1cn(Cc2ccc(F)c(Cl)c2)c(Nc2cc(-c3cccnc3)ccc2C)nc1=O` [Compound I-0696] is less than 10 nM; for `CCOc1cc(C)c(Nc2nc(=O)c(OC)cn2Cc2cc(F)c(F)c(F)c2)cc1F` [Compound I-0868] it is 10 to 100 nM.
With `COc1cc(C)c(C)c(Nc2nc(=O)c(F)cn2Cc2cc(F)cc(F)c2)c1` [Compound I-1233], the IC50 is less than 10 nM.
On the same count and under the same terms, then `COc1ccc(C)c(Nc2nc(=O)c(OC)cn2Cc2cc(F)c(F)c(F)c2)c1` [Compound I-0625], with less than 10 nM; and `COc1cn(Cc2cc(F)cc(F)c2)c(Nc2cc(-c3nnco3)ccc2C)nc1=O` [Compound I-0599], with 10 to 100 nM; and `COc1cn(Cc2cc(F)cc(Cl)c2)c(Nc2cc(Cl)c(Cl)cc2C)nc1=O` [Compound I-0666], with 100 to 500 nM.
With `COc1cn(Cc2ccccc2)c(Nc2cc(Cl)cc3[nH]ccc23)nc1=O` [Compound I-0818], the IC50 lay within 10 to 100 nM.
Turning to `COc1cc(Cl)c(Nc2nc(=O)c(OC)cn2Cc2cc(F)c(F)c(F)c2)cc1OC` [Compound I-0848], the IC50 was less than 10 nM.
